Source: PubChem BioAssay AID330 (DTP/NCI, 2004)
“And” between values parts separate entries of the source, which are not always exact repeats. Equal entries are not always repeated. Inconclusive results and toxic doses are left out.

Tested on: P388 leukemia ip, CD2F1 mice, survival T/C
Assay: NCI In Vivo Anticancer Drug Screen. Data for tumor model P388 Leukemia (intraperitoneal) in CD2F1 (CDF1) mice
Conditions: endpoint: median survival time, higher = longer survival
Outline: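 Mice carrying the transplanted tumor received test compound or vehicle. Survival was recorded in each group, and the value is the treated-group measurement divided by that of the vehicle-treated control group.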

[1] = dose: 50.0 mg/kg/injection, schedule: Q01DX009 (ip), vehicle: saline
[2] = dose: 100.0 mg/kg/injection, schedule: Q01DX009 (ip), vehicle: saline
[3] = dose: 200.0 mg/kg/injection, schedule: Q01DX009 (ip), vehicle: saline
[4] = dose: 100.0 mg/kg/injection, schedule: Q01DX001 (ip), vehicle: saline with Tween-80
[5] = dose: 200.0 mg/kg/injection, schedule: Q01DX001 (ip), vehicle: saline with Tween-80
[6] = dose: 50.0 mg/kg/injection, schedule: Q01DX005 (ip), vehicle: saline with Tween-80
[7] = dose: 100.0 mg/kg/injection, schedule: Q01DX005 (ip), vehicle: saline with Tween-80
[8] = dose: 200.0 mg/kg/injection, schedule: Q01DX005 (ip), vehicle: saline with Tween-80
[9] = dose: 60.0 mg/kg/injection, schedule: Q01DX005 (ip), vehicle: saline with Tween-80
[10] = dose: 120.0 mg/kg/injection, schedule: Q01DX005 (ip), vehicle: saline with Tween-80
[11] = dose: 240.0 mg/kg/injection, schedule: Q01DX005 (ip), vehicle: saline with Tween-80
[12] = dose: 50.0 mg/kg/injection, schedule: Q01DX009 (ip), vehicle: saline with Tween-80
[13] = dose: 100.0 mg/kg/injection, schedule: Q01DX009 (ip), vehicle: saline with Tween-80
[14] = dose: 200.0 mg/kg/injection, schedule: Q01DX009 (ip), vehicle: saline with Tween-80
[15] = dose: 400.0 mg/kg/injection, schedule: Q01DX009 (ip), vehicle: saline with Tween-80
[16] = dose: 50.0 mg/kg/injection, schedule: Q01DX009 (ip), vehicle: Klucel (hydroxypropylcellulose) (HPC)
[17] = dose: 100.0 mg/kg/injection, schedule: Q01DX009 (ip), vehicle: Klucel (hydroxypropylcellulose) (HPC)
[18] = dose: 12.5 mg/kg/injection, schedule: Q01DX005 (ip), vehicle: Klucel (hydroxypropylcellulose) (HPC)
[19] = dose: 25.0 mg/kg/injection, schedule: Q01DX005 (ip), vehicle: Klucel (hydroxypropylcellulose) (HPC)
[20] = dose: 50.0 mg/kg/injection, schedule: Q01DX005 (ip), vehicle: Klucel (hydroxypropylcellulose) (HPC)
[21] = dose: 100.0 mg/kg/injection, schedule: Q01DX005 (ip), vehicle: Klucel (hydroxypropylcellulose) (HPC)

With C=CCOCC1CO1 (stereo not drawn) the T/C (dose: 12.5 mg/kg/injection, schedule: Q01DX009 (ip), vehicle: saline) was 106 % of control, the T/C (dose: 25.0 mg/kg/injection, schedule: Q01DX009 (ip), vehicle: saline) was 97 % of control and the T/C [1] was 103 % of control. For the same molecule, the T/C (dose: 50.0 mg/kg/injection, schedule: Q04DX003 (ip), vehicle: saline with Tween-80) was 100 % of control, the T/C [2] was 100 % of control and the T/C (dose: 100.0 mg/kg/injection, schedule: Q04DX003 (ip), vehicle: saline with Tween-80) was 90 % of control. The T/C (dose: 132.0 mg/kg/injection, schedule: Q04DX003 (ip), vehicle: saline with Tween-80) was 109 % of control, the T/C [3] was 100 % of control and the T/C (dose: 200.0 mg/kg/injection, schedule: Q04DX003 (ip), vehicle: saline with Tween-80) was 109 % of control. The T/C (dose: 300.0 mg/kg/injection, schedule: Q04DX003 (ip), vehicle: saline with Tween-80) was 122 % of control.

For NC1=NS(=O)(=O)N=C(N)C1=NNc1ccc([N+](=O)[O-])cc1, the T/C [4] was 108 % of control, the T/C [5] was 92 % of control and the T/C (dose: 400.0 mg/kg/injection, schedule: Q01DX001 (ip), vehicle: saline with Tween-80) was 96 % of control.

In the case of CCOC(=O)Nc1c(CCO)n[nH]c1C, the T/C [6] was 108 % of control, the T/C [7] was 101 % of control and the T/C [8] was 97 % of control.

With O=C1CS(=O)(=O)C(c2ccc(F)cc2)N1N1C(=O)CS(=O)(=O)C1c1ccc(F)cc1 (stereo not drawn) the T/C [9] was 91 % of control, the T/C [10] was 93 % of control and the T/C [11] was 93 % of control.

Cc1c(CCNC=O)cc(C)c2c3c(oc12)CCCC3 was tested, and the T/C [12] was 91 % of control, the T/C [13] was 91 % of control and the T/C [14] was 94 % of control. For the same molecule, the T/C [15] was 91 % of control.

O=[N+]([O-])c1ccc(Nc2ccc[n+]3c([O-])csc23)nc1 was tested, and the T/C [1] was 98 % of control, the T/C [13] was 89 % of control and the T/C [2] was 102 % of control. For the same molecule, the T/C [14] was 93 % of control.

With CC1c2ccccc2OS(=O)N1C (stereo not drawn) the T/C [16] was 104 % of control, the T/C [17] was 110 % of control and the T/C (dose: 200.0 mg/kg/injection, schedule: Q01DX009 (ip), vehicle: Klucel (hydroxypropylcellulose) (HPC)) was 111 % of control.

CCCn1c(C)nc2c(N)cc(Cl)cc21 was tested, and the T/C [18] was 99 % of control, the T/C [19] was 95 % of control and the T/C [20] was 103 % of control. For the same molecule, the T/C [21] was 105 % of control.

For CCC1C2Cc3ccc(O)cc3C1(C)CCN2 (stereo not drawn), the T/C (dose: 60.0 mg/kg/injection, schedule: Q01DX005 (ip), vehicle: saline) was 95 % of control and the T/C (dose: 120.0 mg/kg/injection, schedule: Q01DX005 (ip), vehicle: saline) was 98 % of control.

In the case of CSCCC(N)[P+](=O)O (stereo not drawn), the T/C (dose: 50.0 mg/kg/injection, schedule: Q01DX005 (ip), vehicle: saline) was 99 % of control, the T/C (dose: 100.0 mg/kg/injection, schedule: Q01DX005 (ip), vehicle: saline) was 95 % of control and the T/C (dose: 200.0 mg/kg/injection, schedule: Q01DX005 (ip), vehicle: saline) was 99 % of control.

With COc1ccc(Nc2cc[nH]c(=O)c2NC(C)=O)cc1 the T/C [9] was 100 % of control, the T/C [10] was 96 % of control and the T/C [11] was 94 % of control.

CSCC(CO)NC(=O)/C=C/c1c(C)[nH]c(=O)[nH]c1=O (stereo not drawn) was tested, and the T/C (dose: 50.0 mg/kg/injection, schedule: Q01DX009 (ip), vehicle: other) was 86 % of control and 101 % of control, the T/C (dose: 100.0 mg/kg/injection, schedule: Q01DX009 (ip), vehicle: other) was 89 % of control and 111 % of control and the T/C (dose: 200.0 mg/kg/injection, schedule: Q01DX009 (ip), vehicle: other) was 94 % of control. The T/C (dose: 400.0 mg/kg/injection, schedule: Q01DX009 (ip), vehicle: other) was 88 % of control.

C=CCC(NC(=O)c1ccccc1)C(=O)O (stereo not drawn) was tested, and the T/C [12] was 100 % of control, the T/C [13] was 98 % of control and the T/C [14] was 95 % of control.

NC(CCCCCCCCCCCCC(N)C(=O)c1ccccc1)C(=O)c1ccccc1 (stereo not drawn) was tested, and the T/C [9] was 101 % of control, the T/C [10] was 93 % of control and the T/C [11] was 93 % of control.

In the case of O=C(O)c1ccc(OCCOc2ccccc2)cc1, the T/C (dose: 50.0 mg/kg/injection, schedule: Q01DX001 (ip), vehicle: saline with Tween-80) was 100 % of control, the T/C [4] was 100 % of control and the T/C [5] was 90 % of control.

With O=C(O)C(=Cc1cccc2ccccc12)C(=O)O the T/C [19] was 89 % of control, the T/C [20] was 100 % of control and the T/C [21] was 89 % of control.

Cc1ccc(C2=CSC3=NCCN23)cc1Cl was tested, and the T/C [18] was 99 % of control, the T/C [19] was 101 % of control and the T/C [20] was 107 % of control.

O=C1CCCCC(=O)CS(=O)(=O)C1 was tested, and the T/C [12] was 110 % of control, the T/C [13] was 107 % of control and the T/C [14] was 103 % of control.

In the case of CN1CC[C@]23c4c5ccc(O)c4O[C@H]2C(=O)CC[C@@]3(O)[C@H]1C5, the T/C [1] was 94 % of control, the T/C [2] was 109 % of control and the T/C [3] was 102 % of control.

With CCC(=O)NC(Cc1ccc(F)cc1)C(=O)O (stereo not drawn) the T/C [1] was 90 % of control, the T/C [2] was 88 % of control and the T/C [3] was 90 % of control.

In the case of CC(C)(C)OC(=O)N1CCCC1C1=N/C(=C\c2ccccc2)C(=O)O1 (stereo not drawn), the T/C [6] was 102 % of control, the T/C [7] was 111 % of control and the T/C [8] was 105 % of control.

With CCOC(=O)C1OC(n2cnc3c(N)ncnc32)C(O)C1O (stereo not drawn) the T/C [12] was 96 % of control, the T/C [1] was 103 % of control and the T/C [13] was 98 % of control. The T/C [2] was 100 % of control and 106 % of control, the T/C [14] was 124 % of control and the T/C [3] was 101 % of control and 106 % of control. The T/C [15] was 117 % of control and the T/C (dose: 400.0 mg/kg/injection, schedule: Q01DX009 (ip), vehicle: saline) was 111 % of control.

COc1cccc2c1C(=O)c1c(O)c3c(c(O)c1C2=O)C[C@@](O)(C(=O)CO)C[C@@H]3OC1CC(NC=O)C(O)C(C)O1 (stereo partly drawn) was tested, and the T/C (dose: 1.56 mg/kg/injection, schedule: Q01DX009 (ip), vehicle: Klucel (hydroxypropylcellulose) (HPC)) was 95 % of control, the T/C (dose: 7.4 mg/kg/injection, schedule: Q01DX009 (ip), vehicle: other) was 163 % of control and the T/C (dose: 11.0 mg/kg/injection, schedule: Q01DX009 (ip), vehicle: other) was 157 % of control. For the same molecule, the T/C (dose: 16.5 mg/kg/injection, schedule: Q01DX009 (ip), vehicle: other) was 163 % of control, the T/C (dose: 25.0 mg/kg/injection, schedule: Q01DX009 (ip), vehicle: other) was 192 % of control and the T/C (dose: 37.5 mg/kg/injection, schedule: Q01DX009 (ip), vehicle: other) was 201 % of control. The T/C [16] was 121 % of control.

In the case of O=C1C=C2C(=CCOC2O)O1 (stereo not drawn), the T/C (dose: 0.3 mg/kg/injection, schedule: Q01DX009 (ip), vehicle: saline with Tween-80) was 106 % of control, the T/C (dose: 0.3 mg/kg/injection, schedule: Q04DX003 (ip), vehicle: saline with Tween-80) was 106 % of control and the T/C (dose: 1.0 mg/kg/injection, schedule: Q04DX003 (ip), vehicle: saline with Tween-80) was 114 % of control. The T/C (dose: 2.0 mg/kg/injection, schedule: Q01DX009 (ip), vehicle: Klucel (hydroxypropylcellulose) (HPC)) was 117 % of control and 123 % of control, the T/C (dose: 4.0 mg/kg/injection, schedule: Q01DX009 (ip), vehicle: Klucel (hydroxypropylcellulose) (HPC)) was 106 % of control and 123 % of control and the T/C (dose: 10.0 mg/kg/injection, schedule: Q04DX003 (ip), vehicle: saline with Tween-80) was 113 % of control.

For CNNCCCCC(=O)NC(C)C, the T/C (dose: 25.0 mg/kg/injection, schedule: Q01DX009 (ip), vehicle: Klucel (hydroxypropylcellulose) (HPC)) was 97 % of control, the T/C [16] was 98 % of control and the T/C [17] was 97 % of control.

In the case of CC12CCc3ccccc3C1=Nc1ccccc12 (stereo not drawn), the T/C [6] was 103 % of control, the T/C [7] was 104 % of control and the T/C [8] was 91 % of control.

In the case of Cc1cccc(C)c1NC(=O)C(=O)/C(=C(\N)c1ccccc1)c1ccccc1, the T/C [6] was 101 % of control, the T/C [7] was 94 % of control and the T/C [8] was 90 % of control.
